Results on one substance are retold here after patent US10792301B2, “Therapeutic polysaccharide midi-GAGR and related materials and methods” (priority 2015, dated 2020).

Experiment [1] has as its system phosphorylated CREB in differentiated PC12 cells. Nature of the experiment: Nuclear p-CREB immunostaining in PC12 cells. It is filed as cell-based. The settings on record: 1 μM, 24 h. The method, then: Differentiated PC12 cells and mouse embryonic cortical neurons (E17, DIV14) were treated with mock, dextran, alginate, HA-GAGR or midi-GAGR (1 μM) for 24 h and fixed in 3.7% paraformaldehyde. The fixed cells and neurons were immunostained with antibodies against α-tubulin and phosopho-CREB (p-CREB) along with DAPI (nucleus).

Experiment [2] relates to Mouse cortical neurons (E17, DIV5). Nature of the experiment: LIVE/DEAD assay, pre-treated mouse cortical neurons with 4HNE, H2O2 or Aβ42. The settings on record: pre-treatment 24 h (1 μM midi-GAGR, dextran, alginate; 0.1 μM LA-GAGR; 0.01 μM HA-GAGR). It is filed as cell-based. The source says: The protective effect of polysaccharides on primary cortical neurons from 4HNE, H2O2, and Aβ42 peptide (Sigma) was examined using LIVE/DEAD® Viability/Cytotoxicity Assay Kit (Life Technologies). Female pregnant mice (BALB/C, E17, Charles River Laboratories International, Inc.) or female pregnant SD rats (E17, bred in house) were anesthetized and dissected to obtain 8-9 embryos per animal. Cortical neurons were isolated from embryonic brains and differentiated on poly-L-lysine-coated coverslips in B27/neurobasal medium. For drug treatment before free radical treatment, mouse cortical neurons (5 days in vitro [DIV5.]) were treated with vehicle (H2O), 1 μM of 5 kD dextran (Sigma), alginate (Sigma), midi-GAGR, 0.01 μM of high acyl gellan gum (HA-GAGR, CPKelco Co.), or 0.1 μM of LA-GAGR for 24 h and then treated with 10 μM 4HNE or 50 μM H2O2 for 24 h, or 2 μM A[…]42 peptide for 48 h prior to viability/cytotoxicity assay. For drug co-treatment with free radicals, rat cortical neurons (DIV5) were treated with 1 μM of dextran, alginate, or midi-GAGR, 0.01 μM of HA-GAGR, or 0.1 μM of LA-GAGR along with either 10 μM 4HNE (24 h) or 2 μM Aβ42 peptide (48 h). To examine the extent to which midi-GAGR-mediated neuroprotection depends on FGFR1, rat cortical neurons (E17, DIV5) were pre-treated with 4 μM SU5402 (Sigma) for 6 h and treated with 10 μM 4HNE and either vehicle or 1 μM midi-GAGR for 24 h prior to cell viability/cytotoxicity assay. As controls, neurons were treated with SU5402, midi-GAGR, 4HNE, 4HNE plus midi-GAGR, or SU5402 plus midi-GAGR.
For cell viability/cytotoxicity measurement, neurons on glass coverslips were incubated in 1×PBS containing 2 μM calcein AM (live cells: green) and 4 μM ethidium homodimer-1 (dead cells: red) for 10 min at 37° C. Immediately thereafter, neurons were imaged by 10×objective using a fluorescence Olympus IX71 microscope (Olympus America Inc., Center Valley, Pa.) and, for the acquisition of high-quality images, using TCS SP5 multi-photon laser scanning confocal microscope.
Midi-GAGR attenuated neurite atrophy caused by free reactive radicals. It is now shown herein that midi-GAGR protect neurons from the death caused by free radical insults. The extent to which midi-GAGR protects the primary culture of rodent cortical neurons from 4HNE and H2O2 was determined. In addition to the radicals, amyloid β peptide (Aβ42) was also tested. Aβ42 peptide is a major causative factor that causes oxidative stress and neuron death. Mouse cortical neurons (E17, DIV5) were treated with 10 μM 4HNE (24 h), 50 μM H2O2 (24 h), or 2 μM Aβ42 peptide (48 h) after the treatment of the neurons with vehicle (H2O), midi-GAGR (1 μM), dextran (1 μM), alginate (1 μM), LA-GAGR (0.1 μM), or HA-GAGR (0.01 μM) for 24 h. The concentrations of 4HNE, H2O2, and Aβ42 peptide were chosen according to their patho-physiological concentrations. The concentrations of LA-GAGR and HA-GAGR were chosen because, within the same volume, the total numbers of sugar units in the polysaccharides at the concentrations are close to that of 1 μM midi-GAGR. The viability of neurons was assessed using LIVE/DEAD® Viability/Cytotoxicity Assay Kit in which membrane-permeant calcein AM is cleaved by esterase in live cells, thus yielding green fluorescence, and membrane-impermeant ethidium homodimer-1 stains the nucleic acids of plasma membrane-compromised cells with red fluorescence. The numbers of green (live) and red (dead) neurons in each condition were counted using Metamorph. Although the intensities of green fluorescent signals in neurons treated with either free radicals or Aβ42 peptide were weak, the neurons were included in the counting. About 8-9% of vehicle-treated neurons died during the process of live/dead cell assay (FIGS. 23A-23F, FIGS. 24A-24C).

dextran: in experiment [1], the “increase of the levels of nuclear p-CREB” value is reported as “not significantly increased”. Also, in experiment [2] (2 μM Aβ42 48 h, vehicle about 30%), the “neuron death after Aβ42 peptide” value is recorded as “did not decrease”. The “neuron death after H2O2” value in experiment [2] (50 μM H2O2 24 h, vehicle ~25%) was “did not reduce”.
